These results are taken from patent publication US5681604A, “Stain-inhibiting agent for dyes with affinity for protonatable nitrogen, compositions containing same and uses thereof” (priority 1993, dated 1997).

Data set [1] can be described thus: Stain inhibition: 66 nylon yarn immersed in F, D & C Red 40 / citric acid staining solution. As for the experimental part: 3. […] A second yarn sample, Sample 2B, was immersed in staining/stain-inhibitor solution, Solution B, also for one minute. Both samples were then dried for 24 hours.
2. […] Thus, Solution 3B was prepared by adding 100 ppm of the ECG to Solution 3A.

A short description of data set [2]: Stain inhibition: 66 nylon skein (yarn) soaked in cherry KOOL-AID solution. To be noted: for AATCC Staining Scale Rating: 1 min soak, dried 24 h; for CIE L / CIE a / CIE b: Minolta Chromameter. Here is the method:
(§1) Each solution was prepared by mixing 1 gram of the KOOL-AID® powder with enough water to make 450 to 500 cm^3 of solution.
(§2) Solution 1A: prepared as set forth above, no sugar added.
(§3) Solution 1B: Solution 1A+50 parts per million (ppm) tannic acid (certified, Fisher Scientific Co.).
(§4) Solution 1C: Solution 1A+200 ppm tannic acid (same tannic acid as in Solution 1B, hereafter "TA").
(§5) After the solutions were prepared, four 1 in^2 (6.45 cm^2) samples (Carpet Samples 1A, 1B, 1C, and Control) were cut from twisted, heat-set 66 nylon carpet, mock-acid dyed, and four 1-gram samples of 66 nylon skein (Test Fabrics, Middlesex, N.J.) were obtained (Yarn Samples 1A, 1B, 1C, and Control). Carpet Samples 1A, 1B, and 1C were soaked in 50 ml. of Solutions 1A, 1B, and 1C, respectively, for 1 minute, and allowed to dry for 24 hours. The Carpet Control Sample was not exposed to any of the solutions. The same procedure was followed with Yarn Samples 1A, 1B, 1C, and Control. (The carpet and skeins had been scoured in 0.1% non-ionic detergent to remove surface grease and finish.)
(§6) All samples were rinsed thoroughly in distilled water, and allowed to dry.
(§7) The amount of staining on each sample was evaluated by comparison with the AATCC Staining Scale (AATCC Test Method, 175-1991), and by the CIE L, a, b values obtained from the Minolta Chromameter.

The nature of data set [3]: Stain inhibition: 66 nylon carpet soaked in cherry KOOL-AID solution. To be noted: for AATCC Staining Scale Rating: 1 min soak, dried 24 h; for CIE L / CIE a / CIE b: Minolta Chromameter. Here is the method: as §1, §2, §3, §4, §5, §6, §7
For data set [4] the following is noted: commercially-available tannic acid from natural sources; cited from earlier work.
A further data set can be described thus: Titration with NaOH. Format: physicochemical.
For the next data set, the system named is mice. To be noted: oral, in mice; cited from earlier work.
The nature of data set [5]: Stain-inhibiting activity (general statements).
The mark [6] stands for this setting: 50 ppm TA in cherry KOOL-AID solution.
Setting [7] is: 200 ppm TA in cherry KOOL-AID solution.

Molecule `O=C(O[C@@H]1Cc2c(O)cc(O)cc2O[C@@H]1c1ccc(O)c(O)c1)c1cc(O)c(O)c(O)c1` [ECG, Epicatechin gallate] gave an AATCC in data set [1] (100 ppm ECG in Red 40 staining solution pH 2.8, 1 min) of 7. In data set [1] (100 ppm ECG, Chromameter), the “CIE L” value is 81, the CIE a came out at 4 and the CIE b was found to be 2.

As usually defined, the LD50 is the dose expected to kill half of the subjects tested. Take `O=C(OC[C@H]1O[C@@H](OC(=O)c2cc(O)c(O)c(OC(=O)c3cc(O)c(O)c(O)c3)c2)[C@H](OC(=O)c2cc(O)c(O)c(OC(=O)c3cc(O)c(O)c(O)c3)c2)[C@@H](OC(=O)c2cc(O)c(O)c(OC(=O)c3cc(O)c(O)c(O)c3)c2)[C@@H]1OC(=O)c1cc(O)c(O)c(OC(=O)c2cc(O)c(O)c(O)c2)c1)c1cc(O)c(O)c(OC(=O)c2cc(O)c(O)c(O)c2)c1` [TA, tannic acid]: the “AATCC Staining Scale Rating” value in data set [2] (setting [6]) is reported as 7; in data set [2] (setting [7]), 9; in data set [3] (setting [6]) it was 6; in data set [3] (setting [7]) it was 10. The “CIE L” value in data set [2] (50 ppm TA) came out at 81; in data set [2] (200 ppm TA), 83; in data set [3] (50 ppm TA) it was 78; in data set [3] (200 ppm TA), 83. The CIE a is on record as 12 in data set [2] (50 ppm TA), 8 in data set [2] (200 ppm TA), 9 in data set [3] (50 ppm TA) and 0.8 in data set [3] (200 ppm TA). Besides, the CIE b in data set [2] (50 ppm TA) is given as 4; in data set [2] (200 ppm TA), 4; in data set [3] (50 ppm TA) it was 3; in data set [3] (200 ppm TA), 2. Moreover, in data set [4], the water solubility entry was “water soluble”. Also, in “Titration with NaOH”, the “inflection point pH when titrated with NaOH” value is on record as “about 4.5”. Besides, in the data set with mice, the LD50 was 6000 mg/kg.

In the case of `Oc1cccc(O)c1O` [pyrogallol], in data set [5], the stain-inhibiting activity entry is given as “do not appear to exhibit stain-inhibiting activity”.

Turning to `Oc1cccc(O)c1` [resorcinol], the stain-inhibiting activity result in data set [5] is “do not appear to exhibit stain-inhibiting activity”.
